Assay results: PubChem BioAssay AID248 (DTP/NCI, 2004)
Values joined by “and” are separate entries in the source; they are usually repeats but may differ in a detail not shown here. Identical values can stand only once. Inconclusive results and toxic doses are left out.

System: L1210 leukemia ip in BDF1 mice, survival T/C
Test: NCI In Vivo Anticancer Drug Screen. Data for tumor model L1210 Leukemia (intraperitoneal) in B6D2F1 (BDF1) mice
Details: endpoint: mean survival time, higher = longer survival
Summary of the method: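 Tumor cells were implanted, animals were treated, and survival was followed. The result divides the treated measurement by the vehicle-control measurement.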

[1] = dose: 100.0 mg/kg/injection, schedule: Q01DX009 (ip), vehicle: Klucel (hydroxypropylcellulose) (HPC)
[2] = dose: 100.0 mg/kg/injection, schedule: Q04DX003 (ip), vehicle: Klucel (hydroxypropylcellulose) (HPC)
[3] = dose: 200.0 mg/kg/injection, schedule: Q01DX009 (ip), vehicle: Klucel (hydroxypropylcellulose) (HPC)
[4] = dose: 200.0 mg/kg/injection, schedule: Q04DX003 (ip), vehicle: Klucel (hydroxypropylcellulose) (HPC)
[5] = dose: 400.0 mg/kg/injection, schedule: Q01DX009 (ip), vehicle: Klucel (hydroxypropylcellulose) (HPC)
[6] = dose: 400.0 mg/kg/injection, schedule: Q04DX003 (ip), vehicle: Klucel (hydroxypropylcellulose) (HPC)
[7] = dose: 100.0 mg/kg/injection, schedule: Q01DX001 (ip), vehicle: Klucel (hydroxypropylcellulose) (HPC)
[8] = dose: 200.0 mg/kg/injection, schedule: Q01DX001 (ip), vehicle: Klucel (hydroxypropylcellulose) (HPC)
[9] = dose: 400.0 mg/kg/injection, schedule: Q01DX001 (ip), vehicle: Klucel (hydroxypropylcellulose) (HPC)
[10] = dose: 50.0 mg/kg/injection, schedule: Q04DX002 (ip), vehicle: Klucel (hydroxypropylcellulose) (HPC)
[11] = dose: 200.0 mg/kg/injection, schedule: Q04DX002 (ip), vehicle: Klucel (hydroxypropylcellulose) (HPC)

COc1ccc(CC(N)C(=O)OCc2ccccc2)cc1N(CCCl)CCCl (stereo not given)
T/C (dose: 0.08 mg/kg/injection, schedule: Q01DX009 (ip), vehicle: saline): 113 % of control
T/C (dose: 0.15 mg/kg/injection, schedule: Q01DX009 (ip), vehicle: saline): 118 % of control
T/C (dose: 0.3 mg/kg/injection, schedule: Q01DX009 (ip), vehicle: saline): 118 % of control
T/C (dose: 0.75 mg/kg/injection, schedule: Q01DX001 (ip), vehicle: saline): 110 % of control
T/C (dose: 1.5 mg/kg/injection, schedule: Q01DX001 (ip), vehicle: saline): 104 % of control
T/C (dose: 6.0 mg/kg/injection, schedule: Q01DX009 (ip), vehicle: saline): 93 % of control
T/C (dose: 12.5 mg/kg/injection, schedule: Q01DX001 (ip), vehicle: saline): 155 % of control

CCCCCCCC(=O)c1ccc(NC(C)=O)cc1
T/C [1]: 103 % of control
T/C [2]: 99 % of control
T/C [3]: 95 % of control
T/C [4]: 92 % of control
T/C [5]: 102 % of control
T/C [6]: 100 % of control

CCCCCCCCCCCCCCCC[As](=O)(O)O
T/C [2]: 121 % of control
T/C [4]: 93 % of control
T/C [6]: 90 % of control

CCn1c(COc2cc(C)cc(C)c2)c(COC(=O)c2cccc(Cl)c2)c2ccccc21
T/C (dose: 50.0 mg/kg/injection, schedule: Q01DX009 (ip), vehicle: saline with Tween-80): 96 % of control
T/C (dose: 100.0 mg/kg/injection, schedule: Q01DX009 (ip), vehicle: saline with Tween-80): 86 % of control
T/C (dose: 200.0 mg/kg/injection, schedule: Q01DX009 (ip), vehicle: saline with Tween-80): 91 % of control

CN1CCc2ccc(O)cc2C1
T/C (dose: 100.0 mg/kg/injection, schedule: Q04DX003 (ip), vehicle: saline): 95 % of control
T/C (dose: 200.0 mg/kg/injection, schedule: Q04DX003 (ip), vehicle: saline): 95 % of control

COC(=O)N1C(c2ccc(OC)cc2)CS1(=O)=O (stereo not given)
T/C (dose: 75.0 mg/kg/injection, schedule: Q04DX003 (ip), vehicle: Klucel (hydroxypropylcellulose) (HPC)): 101 % of control
T/C [7]: 97 % of control
T/C (dose: 150.0 mg/kg/injection, schedule: Q04DX003 (ip), vehicle: Klucel (hydroxypropylcellulose) (HPC)): 98 % of control
T/C [8]: 102 % of control
T/C (dose: 300.0 mg/kg/injection, schedule: Q04DX003 (ip), vehicle: Klucel (hydroxypropylcellulose) (HPC)): 116 % of control
T/C [9]: 97 % of control

Cc1cc(N(C)C)nc(N(C)C)n1
T/C (dose: 100.0 mg/kg/injection, schedule: Q01DX001 (ip), vehicle: other): 93 % of control
T/C (dose: 100.0 mg/kg/injection, schedule: Q04DX003 (ip), vehicle: other): 103 % of control
T/C (dose: 200.0 mg/kg/injection, schedule: Q01DX001 (ip), vehicle: other): 101 % of control
T/C (dose: 200.0 mg/kg/injection, schedule: Q04DX003 (ip), vehicle: other): 97 % of control
T/C (dose: 250.0 mg/kg/injection, schedule: Q01DX Z (ip), vehicle: methylcellulose (MC)): 100 % of control
T/C (dose: 375.0 mg/kg/injection, schedule: Q01DX Z (ip), vehicle: methylcellulose (MC)): 94 % of control
T/C (dose: 400.0 mg/kg/injection, schedule: Q01DX001 (ip), vehicle: other): 91 % of control
T/C (dose: 400.0 mg/kg/injection, schedule: Q04DX003 (ip), vehicle: other): 102 % of control
T/C (dose: 500.0 mg/kg/injection, schedule: Q01DX Z (ip), vehicle: methylcellulose (MC)): 96 % of control

OCC1OC(n2cncn2)C(O)C1O (stereo not given)
T/C (dose: 100.0 mg/kg/injection, schedule: Q01DX005 (ip), vehicle: saline): 102 % of control and 111 % of control

C=CCNC(N)=S
T/C (dose: 100.0 mg/kg/injection, schedule: Q04DX002 (ip), vehicle: saline): 100 % of control
T/C (dose: 200.0 mg/kg/injection, schedule: Q04DX002 (ip), vehicle: saline): 107 % of control
T/C (dose: 400.0 mg/kg/injection, schedule: Q04DX002 (ip), vehicle: saline): 95 % of control

O=C(CCN1CC1)Nc1cccc(NC(=O)CCN2CC2)c1
T/C (dose: 2.5 mg/kg/injection, schedule: Q01DX001 (ip), vehicle: Klucel (hydroxypropylcellulose) (HPC)): 112 % of control
T/C (dose: 40.0 mg/kg/injection, schedule: Q01DX001 (ip), vehicle: Klucel (hydroxypropylcellulose) (HPC)): 153 % of control

Cc1cc(O)c2c(c1)OC(C)(C)C1=C2CC(C)CC1 (stereo not given)
T/C (dose: 75.0 mg/kg/injection, schedule: Q01DX009 (ip), vehicle: Klucel (hydroxypropylcellulose) (HPC)): 96 % of control
T/C (dose: 150.0 mg/kg/injection, schedule: Q01DX009 (ip), vehicle: Klucel (hydroxypropylcellulose) (HPC)): 92 % of control
T/C (dose: 300.0 mg/kg/injection, schedule: Q01DX009 (ip), vehicle: Klucel (hydroxypropylcellulose) (HPC)): 101 % of control

O=S1CCOCC1.O=S1CCOCC1.O=S1CCOCC1.O=S1CCOCC1.O=S1CCOCC1.O=S1CCOCC1.[Hg+2].[O-][Cl+3]([O-])([O-])O
T/C (dose: 3.0 mg/kg/injection, schedule: Q01DX009 (ip), vehicle: Klucel (hydroxypropylcellulose) (HPC)): 93 % of control
T/C (dose: 6.0 mg/kg/injection, schedule: Q01DX009 (ip), vehicle: Klucel (hydroxypropylcellulose) (HPC)): 92 % of control
T/C (dose: 12.5 mg/kg/injection, schedule: Q01DX009 (ip), vehicle: Klucel (hydroxypropylcellulose) (HPC)): 98 % of control

CCc1ccc(NC(=O)c2ccco2)cc1
T/C (dose: 25.0 mg/kg/injection, schedule: Q01DX009 (ip), vehicle: Klucel (hydroxypropylcellulose) (HPC)): 98 % of control
T/C (dose: 50.0 mg/kg/injection, schedule: Q01DX009 (ip), vehicle: Klucel (hydroxypropylcellulose) (HPC)): 96 % of control
T/C [1]: 98 % of control

COc1ccc(S(=O)(=O)NC(=O)NC(=O)CC=C(C)C)cc1
T/C [10]: 103 % of control
T/C [1]: 105 % of control
T/C (dose: 100.0 mg/kg/injection, schedule: Q04DX002 (ip), vehicle: Klucel (hydroxypropylcellulose) (HPC)): 96 % of control
T/C [2]: 110 % of control
T/C [3]: 95 % of control
T/C [11]: 103 % of control
T/C [4]: 98 % of control
T/C [5]: 97 % of control
T/C [6]: 104 % of control

CS(=O)(=O)OCCN(CCOS(C)(=O)=O)c1cccc(F)c1
T/C (dose: 5.0 mg/kg/injection, schedule: Q01DX001 (ip), vehicle: saline): 98 % of control and 113 % of control
T/C (dose: 9.0 mg/kg/injection, schedule: Q01DX001 (ip), vehicle: saline): 98 % of control
T/C (dose: 10.0 mg/kg/injection, schedule: Q01DX001 (ip), vehicle: saline): 100 % of control
T/C (dose: 13.0 mg/kg/injection, schedule: Q01DX001 (ip), vehicle: saline): 96 % of control
T/C (dose: 30.0 mg/kg/injection, schedule: Q01DX001 (ip), vehicle: saline): 97 % of control
T/C (dose: 40.0 mg/kg/injection, schedule: Q01DX001 (ip), vehicle: saline): 100 % of control
T/C (dose: 50.0 mg/kg/injection, schedule: Q01DX001 (ip), vehicle: saline): 103 % of control
T/C (dose: 80.0 mg/kg/injection, schedule: Q01DX001 (ip), vehicle: saline): 98 % of control and 87 % of control
T/C (dose: 100.0 mg/kg/injection, schedule: Q01DX001 (ip), vehicle: saline): 105 % of control
T/C (dose: 200.0 mg/kg/injection, schedule: Q01DX001 (ip), vehicle: saline): 121 % of control

O=C1OC2CCCCC2/C1=C/N1CCCCC1 (stereo not given)
T/C (dose: 5.0 mg/kg/injection, schedule: Q04DX002 (ip), vehicle: Klucel (hydroxypropylcellulose) (HPC)): 92 % of control
T/C (dose: 10.0 mg/kg/injection, schedule: Q04DX002 (ip), vehicle: Klucel (hydroxypropylcellulose) (HPC)): 102 % of control
T/C (dose: 20.0 mg/kg/injection, schedule: Q04DX002 (ip), vehicle: Klucel (hydroxypropylcellulose) (HPC)): 107 % of control
T/C (dose: 40.0 mg/kg/injection, schedule: Q04DX002 (ip), vehicle: Klucel (hydroxypropylcellulose) (HPC)): 93 % of control
T/C [10]: 103 % of control
T/C [11]: 102 % of control and 103 % of control
T/C (dose: 400.0 mg/kg/injection, schedule: Q04DX002 (ip), vehicle: Klucel (hydroxypropylcellulose) (HPC)): 88 % of control

COc1ccccc1-n1c(O)c(N=Nc2ccc(Br)cc2)c(=O)n(-c2ccc(C)cc2)c1=S
T/C [7]: 109 % of control
T/C [8]: 102 % of control
T/C [9]: 102 % of control
